Laboratory results from US8975232B2, “Macrocyclic kinase inhibitors and uses thereof” (President and Fellows of Harvard College, priority 2010, dated 2015).
Values belong to the molecule of their own block, whether it stands above or below them. *1 amine or outer side, *2 acyl side, *3 side chain or, on linkers, in order; H or OH if unused. Where a SMILES comes first, the peptide text is derived from it. Bridges are numbered along the chain shown (N, C = ends). [ ]: non-standard residue; d: D form. The star is where a group is joined. Ala(E-styryl) = N[C@@H](C/C=C/c1ccccc1)C(=O)O; dBpa = N[C@H](Cc1ccc(C(=O)c2ccccc2)cc1)C(=O)O; Maleoyl = O=C(/C=C\C(=O)[*:2])[*:1]; NH(CH2CH2O)2CH2CH2NH2 = NCCOCCOCCN*; Cha = N[C@@H](CC1CCCCC1)C(=O)O; Dab = NCC[C@H](N)C(=O)O; Dap = NC[C@H](N)C(=O)O

Legend:
[1] = target: Src kinase (Homo sapiens, UniProt P12931); test: Z'-LYTE kinase assay (Invitrogen), Src; assay type: biochemical; set-up: full-length kinase in the Z-LYTE assay vs. kinase domain in the current study; purchased Millipore; details: for IC50: Z'-LYTE, ATP near KM; for Src kinase inhibition (in words): non-DNA-linked compound
Chain of Src kinase (P12931 whole entry, the tested form may be a part): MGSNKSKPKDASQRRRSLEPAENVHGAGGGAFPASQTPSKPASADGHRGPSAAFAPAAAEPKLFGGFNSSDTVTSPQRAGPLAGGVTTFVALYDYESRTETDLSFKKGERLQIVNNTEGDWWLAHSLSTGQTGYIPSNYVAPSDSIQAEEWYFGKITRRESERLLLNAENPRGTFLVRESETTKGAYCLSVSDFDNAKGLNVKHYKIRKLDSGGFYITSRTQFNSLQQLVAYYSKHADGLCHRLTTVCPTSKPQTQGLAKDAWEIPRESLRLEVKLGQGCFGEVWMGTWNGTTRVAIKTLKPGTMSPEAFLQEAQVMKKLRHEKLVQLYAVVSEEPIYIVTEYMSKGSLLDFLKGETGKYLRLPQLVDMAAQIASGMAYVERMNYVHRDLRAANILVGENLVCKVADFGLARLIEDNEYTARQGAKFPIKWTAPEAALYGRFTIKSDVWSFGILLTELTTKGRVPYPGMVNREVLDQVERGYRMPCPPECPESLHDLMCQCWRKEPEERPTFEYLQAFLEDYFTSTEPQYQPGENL
Method: Nine macrocycles enriched in the Src selection (FIG. 5) and synthesized as described above were assayed in vitro for the ability to inhibit Src kinase activity. Kinase activity was assayed in the presence of varying concentrations of macrocycle using the FRET-based Z′-LYTE assay (Invitrogen).
(§1) Src IC50 determinations and single-point inhibition measurements were performed using Invitrogen's Z′-LYTE Tyr 02 assay kit according to the manufacturer's protocols. All kinase assays were performed at ATP concentrations near KM,ATP values, except where noted otherwise. Active human Src kinase was obtained from Millipore. For kinome profiling and IC50 determinations against non-Src kinases, compounds were submitted to Invitrogen's SelectScreen Kinase Profiling Service.

[2] = target: HCK (Homo sapiens, UniProt P08631); test: Continuous spectrophotometric kinase activity assay; assay type: biochemical; set-up: Kinase domain constructs of human c-Abl (residues 229-512), chicken c-Src (residues 251-533 and residues 83-533), murine Lck (residues 227-509), and human Hck (residues 166-445); made in house; details: 300 μM Src optimal peptide
Chain of HCK (P08631 262-515 limits assumed): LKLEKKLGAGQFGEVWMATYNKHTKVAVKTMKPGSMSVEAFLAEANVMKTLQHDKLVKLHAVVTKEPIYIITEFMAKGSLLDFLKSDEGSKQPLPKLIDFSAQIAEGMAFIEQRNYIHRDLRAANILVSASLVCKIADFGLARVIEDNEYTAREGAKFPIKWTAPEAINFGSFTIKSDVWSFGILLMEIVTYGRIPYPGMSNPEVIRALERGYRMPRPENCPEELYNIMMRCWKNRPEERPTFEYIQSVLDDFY
Text: (§2) Kinase domain constructs of human c-Abl (residues 229-512), chicken c-Src (residues 251-533 and residues 83-533), murine Lck (residues 227-509), and human Hck (residues 166-445) were expressed as previously described (Seeliger, Young et al. 2005; Seeliger, Nagar et al. 2007; the entire contents of each of which are incorporated by reference herein). Mutations were introduced into chicken c-Src (residues 251-533) (T338I, C277Q, L297M) by site-directed mutagenesis and verified by DNA sequencing.
(§3) In vitro kinase inhibition assays were performed using either a continuous spectrophotometric assay or a FRET-based endpoint assay.
(§4) The original characterization of kinase inhibition was performed with a commercial kinase assay that relies on a fluorescently labeled peptide kinase substrate (Z-LYTE, Invitrogen). For further characterization, a continuous spectrophotometric kinase activity assay was employed that is easily adapted to different substrate peptides as well as a wider range of peptide and ATP concentrations.

[3] = target: T1, full-length chicken c-Src (Gallus gallus, UniProt P00523); test: Z'-LYTE kinase assay (Tyr 02 substrate peptide), full-length c-Src; assay type: biochemical
T1 construct: assayed against full-length chicken c-Src
Method: For the FRET-based endpoint assay, kinase assays were performed using Invitrogen's Z′-LYTE kinase assay using the Tyr 02 substrate peptide (based upon the optimal Abl substrate peptide […]) according to the manufacturer's instructions. Assays were performed at near KM ATP concentrations for full-length c-Src and full-length c-Src T338I-50 μM and 7 μM, respectively.
Derivatives of MC4 were synthesized by Fmoc solid-phase peptide synthesis and assayed against full-length chicken c-Src using Invitrogen's Z′-LYTE kinase assay. […] Holding the amino acids at the A and C positions constant, variants of MC4 containing phenylalanine, cyclohexylalanine, pentafluorophenylalanine, and N-methyl-phenylalanine at the B position in place of furylalanine were synthesized and assayed.

[4] = target: T2, Abl (Homo sapiens, UniProt P00519); test: Continuous spectrophotometric kinase activity assay; assay type: biochemical
T2 construct: human c-Abl (residues 229-512); made in house
T2 sequence (P00519 229-512): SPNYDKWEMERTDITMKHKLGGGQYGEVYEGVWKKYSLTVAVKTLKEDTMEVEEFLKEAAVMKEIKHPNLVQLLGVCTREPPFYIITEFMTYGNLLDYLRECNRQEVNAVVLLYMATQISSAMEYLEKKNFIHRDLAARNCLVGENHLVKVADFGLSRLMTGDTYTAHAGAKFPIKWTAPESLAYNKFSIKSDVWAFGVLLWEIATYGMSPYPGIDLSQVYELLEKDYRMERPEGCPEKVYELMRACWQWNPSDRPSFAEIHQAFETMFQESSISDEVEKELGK
Text: as §2, §3, §4

[5] = target: T3, Src kinase domain (chicken c-Src residues 251-533) (Gallus gallus, UniProt P00523); test: as above; assay type: biochemical; details: Src kinase domain
T3 construct: chicken c-Src (residues 251-533 and residues 83-533); made in house
Text: as §2, §3, §4

[6] = target: T4, Lck (Mus musculus, UniProt P06240); test: as above; assay type: biochemical, murine
T4 construct: murine Lck (residues 227-509); made in house
T4 sequence (P06240 227-509): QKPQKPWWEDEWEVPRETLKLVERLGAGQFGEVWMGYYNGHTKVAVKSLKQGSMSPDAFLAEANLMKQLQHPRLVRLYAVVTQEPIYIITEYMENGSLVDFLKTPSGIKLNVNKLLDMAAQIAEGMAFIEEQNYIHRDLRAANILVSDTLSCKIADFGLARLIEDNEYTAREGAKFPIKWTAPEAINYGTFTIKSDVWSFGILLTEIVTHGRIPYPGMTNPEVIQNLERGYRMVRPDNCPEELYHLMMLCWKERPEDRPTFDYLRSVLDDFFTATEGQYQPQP
Text: as §2, §3, §4

[7] = target: p38α-MAPKAPK2 kinase cascade (P38α-MK2) (Homo sapiens, UniProt P49137+Q16539); test: Z'-LYTE kinase cascade assay (Invitrogen SelectScreen); assay type: biochemical
Chain of p38α-MAPKAPK2 kinase cascade (P38α-MK2) (Q16539 whole entry): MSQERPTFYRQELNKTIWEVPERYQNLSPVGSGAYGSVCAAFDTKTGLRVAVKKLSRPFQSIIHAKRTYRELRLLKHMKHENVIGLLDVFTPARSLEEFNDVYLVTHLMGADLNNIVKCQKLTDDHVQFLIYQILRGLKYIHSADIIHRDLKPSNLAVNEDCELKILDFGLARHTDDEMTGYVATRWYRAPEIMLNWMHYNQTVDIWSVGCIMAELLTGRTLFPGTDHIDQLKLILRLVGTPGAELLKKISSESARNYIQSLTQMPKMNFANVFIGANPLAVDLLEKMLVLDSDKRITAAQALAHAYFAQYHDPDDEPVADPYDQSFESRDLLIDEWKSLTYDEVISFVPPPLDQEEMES
Chain of p38α-MAPKAPK2 kinase cascade (P38α-MK2) (P49137 whole entry): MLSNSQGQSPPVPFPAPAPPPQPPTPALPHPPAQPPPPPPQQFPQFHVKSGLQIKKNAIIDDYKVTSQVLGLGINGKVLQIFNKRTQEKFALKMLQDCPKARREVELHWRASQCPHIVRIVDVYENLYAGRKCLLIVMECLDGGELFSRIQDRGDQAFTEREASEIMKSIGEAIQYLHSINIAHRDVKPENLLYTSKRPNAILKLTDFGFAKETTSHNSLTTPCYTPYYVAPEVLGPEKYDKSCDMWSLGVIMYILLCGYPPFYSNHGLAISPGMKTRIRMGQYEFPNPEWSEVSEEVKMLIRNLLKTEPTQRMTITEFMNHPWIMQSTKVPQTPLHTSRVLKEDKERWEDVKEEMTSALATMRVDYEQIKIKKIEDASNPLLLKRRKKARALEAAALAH
Text: (§5) Macrocycles A10-B1-C11-D5 and A10-B8-C11-D5 were enriched 2- to 6-fold upon selection for binding Akt3, MAPKAPK2, Pim1, and VEGFR2 (FIG. 6). These two macrocycles are structurally similar, sharing nitrophenylalanine (A10) and cyclohexylstatine (C11) building blocks as well as the same lysine scaffold (D5), and differ only at the B building block with either furylalanine (B1) or cyclohexylalanine (B8) (FIG. 6). For assay purposes, the macrocycles were synthesized with C-terminal PEG-diamine linkers to aid solubility, and then tested for the ability to inhibit Akt3, MAPKAPK2, Pim1 and VEGFR2.
as §1

[8] = target: Pim1 (Homo sapiens, UniProt P11309); test: Z'-LYTE kinase assay (Invitrogen SelectScreen); assay type: biochemical; details: Pim1
Chain of Pim1 (P11309 whole entry): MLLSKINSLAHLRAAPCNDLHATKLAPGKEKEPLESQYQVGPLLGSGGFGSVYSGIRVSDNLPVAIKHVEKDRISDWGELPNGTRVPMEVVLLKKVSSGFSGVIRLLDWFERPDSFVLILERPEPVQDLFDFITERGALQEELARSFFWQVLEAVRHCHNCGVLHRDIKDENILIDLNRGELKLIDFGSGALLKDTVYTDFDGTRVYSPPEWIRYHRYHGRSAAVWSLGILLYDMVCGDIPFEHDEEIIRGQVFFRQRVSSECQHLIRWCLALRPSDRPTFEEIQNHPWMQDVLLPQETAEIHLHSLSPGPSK
Text: as §5, §1

[9] = 5 μM ATP, 100 μM Src optimal peptide
[10] = 5 μM ATP, 300 μM Src optimal peptide
[11] = 250 μM ATP, 300 μM Src optimal peptide

IC50 [1]: 10 µM
SMILES: C=CC[C@@H]1NC(=O)/C=C\C(=O)N[C@H](C(N)=O)CCNC(=O)[C@H](CCCNC(=O)c2cnccn2)NC(=O)[C@H](Cc2ccco2)NC1=O [cis-A11-B1-C3-D7]

IC50 [1]: > 100 µM
SMILES: CS(=O)(=O)CC[C@@H]1NC(=O)[C@H](Cc2ccco2)NC(=O)[C@H](CC2CC2)NC(=O)/C=C/C(=O)N[C@H](C(N)=O)CCNC1=O [trans-A9-B1-C5-D7]

IC50 [1]: 85 µM
SMILES: NC(=O)[C@@H]1CCCCNC(=O)[C@H](CCCNC(=O)c2cnccn2)NC(=O)[C@H](Cc2ccco2)NC(=O)[C@H](CC2CC2)NC(=O)/C=C\C(=O)N1 [cis-A11-B1-C5-D5]

Src kinase inhibition (in words) [1]: abolished Src inhibition
SMILES: NC(=O)[C@@H]1CCCNC(=O)[C@H](Cc2ccccc2)NC(=O)[C@H](Cc2ccco2)NC(=O)[C@H](CC2CC2)NC(=O)/C=C/C(=O)N1 [trans-Phe-B1-C5-D6]

IC50 [1]: 8.9 µM
SMILES: NC(=O)[C@@H]1CCNC(=O)[C@H](Cc2ccc([N+](=O)[O-])cc2)NC(=O)[C@H](Cc2ccco2)NC(=O)[C@H](CC2CC2)NC(=O)/C=C\C(=O)N1 [cis-A10-B1-C5-D7]

IC50 [1]: > 100 µM
SMILES: NC(=O)[C@@H]1CCNC(=O)[C@H](CCCNC(=O)c2cnccn2)NC(=O)[C@H](CC2CCCCC2)NC(=O)[C@H](CC2CC2)NC(=O)/C=C/C(=O)N1 [trans-A11-B8-C5-D7]

IC50 [1]: 7 µM
SMILES: NC(=O)[C@@H]1CCNC(=O)[C@H](CCCNC(=O)c2cnccn2)NC(=O)[C@H](Cc2ccco2)NC(=O)[C@H](C/C=C/c2ccccc2)NC(=O)/C=C\C(=O)N1 [cis-A11-B1-C10-D7]

IC50 [1]: 1.5 µM
SMILES: NC(=O)[C@@H]1CCNC(=O)[C@H](Cc2ccc([N+](=O)[O-])cc2)NC(=O)[C@H](Cc2ccco2)NC(=O)[C@H](CC2CC2)NC(=O)/C=C/C(=O)N1 [trans-A10-B1-C5-D7]

Src kinase inhibition (in words) [1]: did not inhibit Src
SMILES: CS(=O)(=O)CC[C@@H]1NC(=O)[C@H](Cc2ccco2)NC(=O)[C@H](CC2CC2)NC(=O)C=CC(=O)N[C@H](C(N)=O)CCNC1=O [Macrocycle A9-B1-C5-D7]

The remaining lines, values behind:

SMILES: NC(=O)[C@@H]1CCNC(=O)[C@H](CCCNC(=O)c2cnccn2)NC(=O)[C@H](Cc2ccco2)NC(=O)[C@H](CC2CC2)NC(=O)/C=C/C(=O)N1 [trans-A11-B1-C5-D7]
IC50 [1]: 12 µM

SMILES: NC(=O)[C@@H]1CCCNC(=O)[C@H](Cc2ccc([N+](=O)[O-])cc2)NC(=O)[C@H](Cc2ccccc2)NC(=O)[C@H](CC2CC2)NC(=O)/C=C/C(=O)N1 [MC4.1]
IC50 ([2]; 5 μM ATP): 6.3 µM
IC50 ([2]; 250 μM ATP): 11 µM
increase in Src inhibition potency relative to parent macrocycle [3]: 3 fold
IC50 ([3]; full-length chicken c-Src, ATP near KM (50 μM)): 80 nM
IC50 [4, 9]: > 100 µM
IC50 [4, 10]: > 100 µM
IC50 [4, 11]: > 100 µM
IC50 [5, 9]: 600 nM
IC50 [5, 10]: 800 nM
IC50 [5, 11]: 1800 nM
IC50 [6, 9]: 5.2 µM
IC50 [6, 10]: 5.5 µM
IC50 [6, 11]: 10 µM

SMILES: NC(=O)[C@@H]1CCCCNC(=O)[C@H](CCCNC(=O)c2cnccn2)NC(=O)[C@H](Cc2ccco2)NC(=O)[C@H](CC2CC2)NC(=O)/C=C/C(=O)N1 [trans-A11-B1-C5-D5]
IC50 [1]: > 100 µM

SMILES: NCCOCCOCCNC(=O)[C@@H]1CCNC(=O)/C=C\C(=O)N[C@@H](C/C=C/c2ccccc2)C(=O)N[C@@H](CC2CCCCC2)C(=O)N[C@H](Cc2ccc(C(=O)c3ccccc3)cc2)C(=O)N1 [cis-A12-B8-C10-D3] ([Ala(E-styryl)][Cha][dBpa][Dab]-{NH(CH2CH2O)2CH2CH2NH2}; linker N-4 via Maleoyl)
IC50 [7]: 12 µM
IC50 [8]: 25 µM

SMILES: NCCOCCOCCNC(=O)[C@@H]1CNC(=O)/C=C\C(=O)N[C@@H](C/C=C/c2ccccc2)C(=O)N[C@@H](CC2CCCCC2)C(=O)N[C@H](Cc2ccc(C(=O)c3ccccc3)cc2)C(=O)N1 [cis-A12-B8-C10-D4] ([Ala(E-styryl)][Cha][dBpa][Dap]-{NH(CH2CH2O)2CH2CH2NH2}; linker N-4 via Maleoyl)
IC50 [7]: 20 µM
IC50 [8]: 100 µM

SMILES: NC(=O)[C@@H]1CCNC(=O)[C@H](CCCNC(=O)c2cnccn2)NC(=O)[C@H](Cc2ccco2)NC(=O)[C@H](C/C=C/c2ccccc2)NC(=O)/C=C/C(=O)N1 [trans-A11-B1-C10-D7]
IC50 [1]: 21 µM

SMILES: C=CC[C@@H]1NC(=O)/C=C/C(=O)N[C@H](C(N)=O)CCNC(=O)[C@H](CCCNC(=O)c2cnccn2)NC(=O)[C@H](Cc2ccco2)NC1=O [trans-A11-B1-C3-D7]
IC50 [1]: 48 µM

SMILES: NC(=O)[C@@H]1CCCNC(=O)[C@H](Cc2ccc([N+](=O)[O-])cc2)NC(=O)[C@H](Cc2ccco2)NC(=O)[C@H](CC2CC2)NC(=O)C=CC(=O)N1 [Macrocycle A10-B1-C5-D6]
difference in potency between cis and trans stereoisomers (Src) [1]: ~10 fold

SMILES: NC(=O)[C@@H]1CCNC(=O)[C@H](CCCNC(=O)c2cnccn2)NC(=O)[C@H](CC2CCCCC2)NC(=O)[C@H](C/C=C/c2ccccc2)NC(=O)/C=C/C(=O)N1 [trans-A11-B8-C10-D7]
IC50 [1]: > 100 µM

SMILES: NC(=O)[C@@H]1CCNC(=O)[C@H](CCCNC(=O)c2cnccn2)NC(=O)[C@H](CC2CCCCC2)NC(=O)[C@H](CC2CC2)NC(=O)/C=C\C(=O)N1 [cis-A11-B8-C5-D7]
IC50 [1]: 36 µM
